Experimental data reported in ChEMBL document CHEMBL1158669, “Cytotoxic scalarane sesterterpenes from a sponge, Hyrtios erecta” (J Nat Prod, 1998).
In brackets after ≈: the same amount, converted by molar mass.

Experiments:
P388 [1] = experiment: Antitumor activity against mouse P388 cells implanted in CDF1 mouse assessed as decrease in weight change at 0.5 mg/kg, ip; type: functional; set-up: scale not given: the % may be the effect or the level left; conditions: route intraperitoneal
P388 [2] = experiment: Antitumor activity against mouse P388 cells implanted in CDF1 mouse assessed as decrease in weight change at 1.0 mg/kg, ip; type: functional; set-up: scale not given: the % may be the effect or the level left; conditions: route intraperitoneal
P388 [3] = experiment: Antitumor activity against mouse P388 cells implanted in CDF1 mouse assessed as increase in life span at 1.0 mg/kg, ip; type: functional; conditions: route intraperitoneal
MKN-7 = experiment: Antitumor activity against human MKN7 cells after 48 hrs by MTT assay; type: functional, cell-based; conditions: MKN-7, 48 h
P388 [4] = experiment: Antitumor activity against mouse P388 cells after 48 hrs by MTT assay; type: functional, cell-based; conditions: P388, 48 h
P388 [5] = experiment: Antitumor activity against mouse P388 cells implanted in CDF1 mouse assessed as increase in life span at 0.5 mg/kg, ip; type: functional; conditions: route intraperitoneal
P388 [6] = experiment: Antitumor activity against mouse P388 cells implanted in CDF1 mouse assessed as decrease in weight change at 2.0 mg/kg, ip; type: functional; set-up: scale not given: the % may be the effect or the level left; conditions: route intraperitoneal
P388 [7] = experiment: Antitumor activity against mouse P388 cells implanted in CDF1 mouse assessed as increase in life span at 4.0 mg/kg, ip; type: functional; conditions: route intraperitoneal
P388 [8] = experiment: Antitumor activity against mouse P388 cells implanted in CDF1 mouse assessed as decrease in weight change at 4.0 mg/kg, ip; type: functional; set-up: scale not given: the % may be the effect or the level left; conditions: route intraperitoneal
P388 [9] = experiment: Antitumor activity against mouse P388 cells implanted in CDF1 mouse assessed as decrease in weight change at 8.0 mg/kg, ip; type: functional; set-up: scale not given: the % may be the effect or the level left; conditions: route intraperitoneal
[10] = Antitumor activity against human MKN1 cells after 48 hrs by MTT assay; type: functional, cell-based; conditions: MKN-1, 48 h
P388 [11] = experiment: Antitumor activity against mouse P388 cells implanted in CDF1 mouse assessed as increase in life span at 8.0 mg/kg, ip; type: functional; conditions: route intraperitoneal
MKN-74 = experiment: Antitumor activity against human MKN74 cells after 48 hrs by MTT assay; type: functional, cell-based; conditions: MKN-74, 48 h
P388 [12] = experiment: Antitumor activity against mouse P388 cells implanted in CDF1 mouse assessed as increase in life span at 2.0 mg/kg, ip; type: functional; conditions: route intraperitoneal

Compound: CC1(C)C(=O)CC[C@]2(C)[C@H]3C[C@@H](O)[C@]4(C)[C@@H]5C(=CC[C@H]4[C@]3(C)CC[C@@H]12)CO[C@H]5O
- Activity (P388 [1]): 3%
- Activity (P388 [2]): 2%
- Activity (P388 [3]): 32.6%
- IC50 (MKN-7): 0.056 µg/mL (≈ 0.139 µM)
- IC50 (P388 [4]): 0.0145 µg/mL (≈ 0.036 µM)
- Activity (P388 [5]): 24.4%
- Activity (P388 [6]): 2.4%
- Activity (P388 [7]): 51.2%
- Activity (P388 [8]): 0.9%
- Activity (P388 [9]): 0.4%
- IC50 [10]: 0.0577 µg/mL (≈ 0.143 µM)
- Activity (P388 [11]): 74.4%
- IC50 (MKN-74): 0.0368 µg/mL (≈ 0.0914 µM)
- Activity (P388 [12]): 31.4%

Compound: CC1(C)CCC[C@]2(C)[C@H]3C[C@@H](O)[C@]4(C)[C@H]5OC(=O)C=C5[C@@H](O)C[C@H]4[C@]3(C)CC[C@@H]12
- IC50 (P388 [4]): > 1 µg/mL

Compound: C[C@@H]1C[C@H]1[C@H](C)C[C@@H](O)[C@@]1([C@H]2CC[C@H]3[C@@H]4CC[C@H]5CC(=O)CC[C@]5(C)[C@H]4C[C@@H](O)[C@]23C)CO1 [ARAGUSTEROL A]
- IC50 (P388 [4]): 0.022 µg/mL (≈ 0.048 µM)

Compound: CC(=O)O[C@@H]1C[C@@H]2[C@@]3(C)CC[C@H](O)C(C)(C)[C@@H]3CC[C@@]2(C)[C@@H]2CC=C3CO[C@@H](O)[C@@H]3[C@@]12C
- IC50 (P388 [4]): 0.505 µg/mL (≈ 1.13 µM)

Compound: CC1(C)[C@@H](O)CC[C@]2(C)[C@H]3C[C@@H](O)[C@]4(C)[C@@H]5C(=CC[C@H]4[C@]3(C)CC[C@@H]12)CO[C@H]5O
- IC50 (P388 [4]): 0.25 µg/mL (≈ 0.618 µM)

Compound: CC(=O)O[C@@H]1C[C@@H]2[C@@]3(C)CCCC(C)(C)[C@@H]3CC[C@@]2(C)[C@@H]2CC=C3C(=O)O[C@@H](O)[C@@H]3[C@@]12C
- IC50 (P388 [4]): > 1 µg/mL

Compound: CC1(C)CCC[C@]2(C)[C@H]3C[C@@H](O)[C@]4(C)[C@@H]5C(=CC[C@H]4[C@]3(C)CC[C@@H]12)CO[C@H]5O
- IC50 (P388 [4]): > 1 µg/mL

Compound: C[C@H](CC[C@](C)(O)[C@H]1CC[C@H]2[C@@H]3CC[C@H]4CC(=O)CC[C@]4(C)[C@H]3C[C@@H](O)[C@@]21C)[C@H]1C[C@@H]1C [ARAGUSTEROL B]
- IC50 (P388 [4]): > 3.3 µg/mL

Compound: C[C@H](C[C@@H](O)[C@](O)(CCl)[C@H]1CC[C@H]2[C@@H]3CC[C@H]4CC(=O)CC[C@]4(C)[C@H]3C[C@@H](O)[C@]12C)[C@H]1C[C@@H]1C [ARAGUSTEROL C]
- IC50 (P388 [4]): 0.041 µg/mL (≈ 0.0828 µM)
